SMILES strings stand for the structures. Where two headings read alike, the source gives them in different places.

A short description of data set [1]: Antiproliferative assay (MTT colorimetric test, 72 h). In kind it is cell-based. Conditions: human, n.a. = not active, read-out: A549, CC50. The text has this: The cytotoxicity of the synthesized oxindoles was studied using the A549 cell line in which the levels of NQO2 are increased (Table 4). […] The cytotoxicity of the compounds may be due to the inhibition of other enzymes associated with the activation of apoptosis in cancer cells, for example GSK3b or tyrosine kinases, or with the general non-specific toxicity of these compounds. Thus, the influence of NQO2 on A549 cell viability has not been established.
The A549 cells were maintained in F12-K (Gibco, Paisley, UK) supplemented with 10% fetal bovine serum (FBS, Gibco, UK), penicillin (100 UI mL^−1), streptomycin (100 µg mL^−1) and GlutaMax (2 mM, Gibco, UK). All cells line were cultured under a humidified atmosphere of 95% air/5% CO2 at 37 °C. Subconfluent monolayers, in the log growth phase, were harvested by a brief treatment with TrypLE Express solution (Gibco, UK) in phosphate-buffered saline (PBS, Capricorn Scientific, Ebsdorfergrund, Germany) and washed three times in serum-free PBS. The number of viable cells was determined by trypan blue exclusion.
The effects of the synthesized compounds on cell viability were determined using the MTT colorimetric test. All examined cells were diluted with the growth medium to 3.5 × 10^4 cells per mL and the aliquots (7 × 10^3 cells per 200 μL) were placed in individual wells in 96-multiplates (Eppendorf, Germany) and incubated for 24 h. […] After incubation, the cells were then treated with 40 μL MTT solution (3-(4,5-dimethylthiazol-2-yl)-2,5-diphenyltetrazolium bromide, 5 mg mL^−1 in PBS) and incubated for 4 h. After an additional 4 h incubation, the medium with MTT was removed and DMSO (150 μL) was added to dissolve the formazan crystals. The plates were shaken for 10 min. The optical density of each well was determined at 560 nm using a microplate reader GloMax Multi+ (Promega, Madison, WI, USA). Each of the tested compounds was evaluated for cytotoxicity in three separate experiments.
A general note: Tetrazolium dyes change colour on reduction, which living cells bring about.

Data set [2] addresses T1, human recombinant NRH:quinone oxidoreductase (NQO2) (Homo sapiens, UniProt P16083).
T1 construct: purchased Sigma Q0380
T1 sequence (P16083 1-231): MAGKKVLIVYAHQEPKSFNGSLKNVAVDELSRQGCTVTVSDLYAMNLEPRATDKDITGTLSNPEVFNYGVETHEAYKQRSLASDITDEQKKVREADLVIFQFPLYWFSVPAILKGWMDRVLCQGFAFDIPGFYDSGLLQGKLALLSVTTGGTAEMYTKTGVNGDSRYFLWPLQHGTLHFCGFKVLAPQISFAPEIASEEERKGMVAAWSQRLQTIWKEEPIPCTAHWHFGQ
As to the kind of experiment: biochemical. Conditions: for inhibition at 10 µM: read-out: NQO2 Inhibition, %. The method, then: The inhibition activity of all synthesized compounds at a concentration of 10 µM was preliminarily tested in vitro using human recombinant NRH:quinone oxidoreductase (NQO2).
The activity of recombinant human NQO2 (Sigma #Q0380, St. Louis, […], USA) was evaluated kinetically using menadione and N-benzyl-dihydronicotinamide (BNAH) as the substrate and co-substrate, respectively. All reagents and test compounds were dissolved in 50 mM Hepes-KOH (pH 7.4) containing 1 mM of β-octyl-D-glucopyranoside, 0.1 mg/mL BSA and 1 μM FAD. […] The solutions of the test compounds were pre-incubated for 5 min with 50 μL of human recombinant NQO2 (final concentration 42 ng/mL). Then, 25 μL of menadione was introduced at a final concentration of 100 μM. The reaction was started with 25 μL of 100 μM BNAH. The fluorescence of the co-substrate BNAH was followed at wavelengths of 370/440 nm at 37 °C using an Infinite M200 Pro microplate reader (Tecan, Grödig, Austria). The fluorescence data was fit according to a one-phase decay nonlinear regression to obtain slope values with Prism 8.0 (GraphPad Inc., San Diego, CA, USA). The activity in sample wells were normalized against negative control and enzyme-blank samples.

Setting [3] is: recombinant human NQO2, 100 μM menadione, 100 μM BNAH, read-out: NQO2 IC50 ± SEM.

With `O=C1Nc2ccc(NC(=O)c3ccco3)cc2C1=Cc1ccc(O)cc1` [Compound 18, 3-(4-hydroxybenzylidene)-5-furoylamino-2-oxindole], the CC50 (usually the concentration giving 50% cytotoxicity) at 72 h in data set [1] was found to be 146 ± 11.3 µM. Also, in data set [2] (setting [3]), the IC50 (as a rule, the concentration that gives 50% inhibition) came out at 0.37 ± 0.02 µM.
With `O=C1Nc2ccc(NC(=O)c3ccccc3)cc2C1=Cc1ccc([N+](=O)[O-])cc1` (mixture of isomers) [Compound 29, 5-benzoylamino-3-((4-nitrophenyl)methylene)-2-oxindole], in data set [2], the IC50 is more than 50 µM.
In the case of `O=c1c(O)c(-c2ccc(O)c(O)c2)oc2cc(O)cc(O)c12` [Quercetin, reference compound], the IC50 in data set [2] (setting [3]) was found to be 0.08 ± 0.02 µM.
For `COC(=O)CCn1cc(C=C2C(=O)Nc3ccccc32)cn1` [Compound 45, (E,Z)-3-(1-[2-(Methoxycarbonyl)ethyl]-1H-pyrazol-4-ylmethylidene)-2-oxindole], the IC50 in data set [2] is more than 50 µM.
The same measure, in the same setting: the result for `COC(=O)Nc1ccc2c(c1)C(=Cc1ccc(Br)cc1)C(=O)N2` [Compound 32, 3-(4-bromobenzylidene)-5-(methoxycarbonylamino)-2-oxindole] reads 0.61 ± 0.03 µM.
On to `COc1cc(C=C2C(=O)Nc3ccccc32)cc(OC)c1OC` [Compound 23, (E,Z)-3-(3,4,5-Trimethoxybenzylidene)-2-oxindole], for which, in data set [1], the CC50 at 72 h was determined as 25.7 µM. Moreover, the IC50 in data set [2] (setting [3]) came to 1.6 ± 0.14 µM.
For the compound `Cc1ccc(C(=O)CC2(O)C(=O)Nc3ccc(NC(=O)c4ccco4)cc32)cc1` (stereo not shown) [Compound 51, 3-hydroxy-5-(2-furoylamino)-3-[2-(4-methylphenyl)-2-oxoethyl]-2-oxindole], in data set [2], the IC50 was more than 50 µM.
Same read-out and setting: the result for `Nc1ccc(CC2C(=O)Nc3ccccc32)cc1` (stereo not shown) [Compound 46, 3-(4-aminobenzyl)-2-oxindole] reads more than 50 µM.
For the compound `O=C1Nc2ccc([N+](=O)[O-])cc2C1=Cc1ccncc1` [Compound 12, 5-nitro-3-(4-pyridinylmethylidene)-2-oxindole], the IC50 in data set [2] (setting [3]) was more than 50 µM.
Take `COC(=O)Nc1ccc2c(c1)C(=Cc1ccc(O)cc1)C(=O)N2` [Compound 17, 3-(4-hydroxybenzylidene)-5-(methoxycarbonylamino)-2-oxindole]: the CC50 at 72 h in data set [1] was determined as 44.43 ± 0.29 µM. For the same compound, the IC50 in data set [2] (setting [3]) was 0.44 ± 0.02 µM.
For the compound `Cc1nn(-c2ccccc2)c(C)c1C=C1C(=O)Nc2ccccc21` [Compound 44, 3-((3,5-dimethyl-1-phenyl-1H-pyrazol-4-yl)methylene)-2-oxindole], the inhibition (as a rule, the drop in the measured response relative to a control, in per cent) at 10 µM in data set [2] stood at 43.6%.
As for `CC(=O)Nc1ccc2c(c1)C(=Cc1ccccn1)C(=O)N2` [Compound 5, (E,Z)-3-(2-Pyridinylmethylidene)-5-acetamido-2-oxindole], the CC50 at 72 h in data set [1] came out at 136 µM. Besides, the IC50 in data set [2] came to 41.1 ± 2.44 µM.
For `CN1C(=O)C(=Cc2ccccn2)c2ccccc21` [Compound 2, N-methyl-3-((pyridin-2-yl)methylene)-2-oxindole], the IC50 in data set [2] is 16.78 ± 0.09 µM.
On to `O=C1Nc2ccc(Br)cc2C1=Cc1cccnc1` [Compound 8, 5-bromo-3-(3-pyridinylmethylidene)-2-oxindole], for which, in data set [1], the CC50 at 72 h amounted to 22.3 ± 1.42 µM. Further, the inhibition at 10 µM in data set [2] worked out at 44.2%.
As for `Nc1ccc2c(c1)C(Cc1ccccn1)C(=O)N2` (stereo not shown) [Compound 47, 3-(pyridin-2-ylmethyl)-5-amino-2-oxindole], the IC50 in data set [2] (setting [3]) is more than 50 µM.
With `COc1ccc(C=C2C(=O)Nc3ccccc32)cc1` [Compound 20, 3-((4-methoxyphenyl)methylene)-2-oxindole], the half-maximal cytotoxic concentration (CC50) at 72 h in data set [1] came out at 54.8 µM. Further, in data set [2], the inhibition at 10 µM is 40.8%.
Turning to `O=C1Nc2ccc([N+](=O)[O-])cc2C1=Cc1ccco1` [Compound 36, 5-nitro-3-(2-furylmethylidene)-2-oxindole], in data set [1], the 50% cytotoxic concentration (CC50) at 72 h stood at 329 ± 17 µM. Moreover, in data set [2], the inhibition at 10 µM was 59.5%.
Consider `O=C1Nc2ccc(Br)cc2C1=Cc1ccco1` [Compound 35, 5-bromo-3-(2-furylmethylidene)-2-oxindole], for which, in data set [1], the half-maximal cytotoxic concentration (CC50) at 72 h came to 449 ± 18.7 µM. Moreover, the IC50 in data set [2] is more than 50 µM.
`COc1ccc(C(=O)CC2(O)C(=O)Nc3ccc(Br)cc32)cc1` (stereo not shown) [Compound 50, 3-hydroxy-5-bromo-3-[2-(4-methoxyphenyl)-2-oxoethyl]-2-oxindole]: the CC50 at 72 h in data set [1] came out at 474 ± 18.2 µM. The inhibition at 10 µM in data set [2] worked out at 78.8%.
For `COc1cc(C=C2C(=O)Nc3ccc(NC(=O)c4ccco4)cc32)cc(OC)c1OC` [Compound 25, 3-(3,4,5-trimethoxybenzylidene)-5-furoylamino-2-oxindole], the CC50 at 72 h in data set [1] amounted to 201 ± 22.7 µM. Also, in data set [2], the half-inhibitory concentration (IC50) was 0.66 ± 0.02 µM.
As for `Cc1ccc(C(=O)CC2(O)C(=O)Nc3ccc(Br)cc32)cc1` (stereo not shown) [Compound 49, 3-hydroxy-5-bromo-3-[2-(4-methylphenyl)-2-oxoethyl]-2-oxindole], the IC50 in data set [2] (setting [3]) was more than 50 µM.
Take `COc1ccc(C=C2C(=O)Nc3ccc(NC(=O)c4ccccc4)cc32)cc1` [Compound 21, (E,Z)-3-(4-Methoxybenzylidene)-5-benzoylamino-2-oxindole]: the CC50 at 72 h in data set [1] stood at 42.3 ± 8.3 µM. Besides, the IC50 in data set [2] (setting [3]) is more than 50 µM.
Turning to `COc1ccc2c(c1)C(O)(CC(=O)c1ccc(C)cc1)C(=O)N2` (stereo not shown) [Compound 48, 3-hydroxy-5-methoxy-3-[2-(4-methylphenyl)-2-oxoethyl]-2-oxindole], in data set [2] (setting [3]), the IC50 was more than 50 µM.
For the compound `CCOC(=O)c1[nH]ncc1C=C1C(=O)Nc2ccccc21` [Compound 39, 3-((5-ethoxycarbonyl-1H-pyrazol-4-yl)methylene)-2-oxindole], the CC50 at 72 h in data set [1] amounted to 231 µM.
As to `CC(=O)Nc1ccc2c(c1)C(=Cc1ccc(O)cc1)C(=O)N2` [Compound 16, (E,Z)-3-(4-Hydroxybenzylidene)-5-acetamido-2-oxindole], in data set [2] (setting [3]), the half-maximal inhibitory concentration (IC50) is 0.99 ± 0.03 µM.
Same read-out and setting: as for `CN1C(=O)C(=Cc2ccc(O)cc2)c2ccccc21` [Compound 15, 3-(4-hydroxybenzylidene)-N-methyl-2-oxindole], the figure is 0.62 ± 0.04 µM.
Take `COC(=O)Nc1ccc2c(c1)C(=Cc1ccc([N+](=O)[O-])cc1)C(=O)N2` [Compound 28, 3-(4-nitrobenzylidene)-5-(methoxycarbonylamino)-2-oxindole]: the inhibition at 10 µM in data set [2] was determined as 74%.
In the case of `Cn1cc(C=C2C(=O)Nc3ccccc32)cn1` [Compound 41, 3-((1-methyl-1H-pyrazol-4-yl)methylene)-2-oxindole], the half-inhibitory concentration (IC50) in data set [2] was found to be 9.4 ± 0.12 µM.
`Cc1n[nH]c(C)c1C=C1C(=O)Nc2ccccc21` [Compound 42, 3-((3,5-dimethyl-1H-pyrazol-4-yl)methylene)-2-oxindole]: the inhibition at 10 µM in data set [2] was found to be 54.4%.
In the case of `O=C1Nc2ccccc2C1=Cc1ccc([N+](=O)[O-])cc1` [Compound 27, 3-((4-nitrophenyl)methylene)-2-oxindole], the IC50 in data set [2] is more than 50 µM.
Still for that read-out and setting: the result for `CCOC(=O)c1[nH]ncc1C=C1C(=O)Nc2ccc([N+](=O)[O-])cc21` [Compound 40, 3-((5-ethoxycarbonyl-1H-pyrazol-4-yl)methylene)-5-nitro-2-oxindole] reads 1.88 ± 0.08 µM.
Consider `COc1cc(C=C2C(=O)Nc3ccc(NC(=O)c4ccccc4)cc32)cc(OC)c1O` [Compound 26, (E,Z)-3-(3,5-Dimethoxy-4-hydroxybenzylidene)-5-benzoylamino-2-oxindole], for which the inhibition at 10 µM in data set [2] is 40.5%.
On to `CCOc1ccc(/C=C2/C(=O)Nc3ccccc32)cc1` [Compound 22, (E)-3-(4-Ethoxybenzylidene)-2-oxindole], for which the IC50 in data set [2] (setting [3]) was more than 50 µM.
On to `O=C1Nc2ccc([N+](=O)[O-])cc2C1=Cc1ccccn1` [Compound 4, 5-nitro-3-(2-pyridinylmethylidene)-2-oxindole], for which, in data set [2], the IC50 was more than 50 µM.
The same measure, in the same setting: as for `CN(C)c1ccc(C=C2C(=O)Nc3ccccc32)cc1` [Compound 30, (E,Z)-3-(4-Dimethylaminobenzylidene)-2-oxindole], the figure is more than 50 µM.
